Results: patent US12448383B2, “Compounds and methods for treatment of viral infections” (priority 2022, dated 2025)
Like-named read-outs stand apart in the source and are kept apart here.

Tests used:
[1] = Stability in pH2 buffered solution; type: physicochemical
Protocol: Example N: Stability in p112 and p117 Buffered Solutions
The aqueous stability of compounds over a time of 24 hours at 40° C. was assessed. Stability was determined in 50 mM phosphate buffered solutions at both pH2 and pH7, with 150 mM NaCl (to achieve isotonicity). 3-5 mg of solid compounds were added to 7 mL scintillation vials. Acetonitrile was added to each vial to produce a 1 mg/mL stock solution. Stock solutions were diluted to 50 μg/mL in either pH2 or pH7 phosphate buffer, to a volume of 1 mL. For each compound and pH condition, 50 μg/mL samples were prepped in duplicate. One sample was placed on the UPLC tray at 40° C. for analysis, and the second sample was placed in a 40° C. oven for storage. Sample preps for each compound were offset by 40 minutes to account for run time on UPLC.
Concentration timepoints were measured at 0, 3, 6, 9, and 12 hrs. After 24 hrs, samples in the 40° C. oven were removed and analyzed by UPLC.
In FIG. 2, % AN stands for % area normalized. That is, % AN is the area of the compound peak relative to the sum of areas of all the peaks in the UPLC chromatogram. For example, if there were two peaks, compound peak with an area of 9 and another peak with an area of 1, then the % AN of the compound peak would be 90%.

[2] = system: Respiratory syncytial virus recombinant with luciferase (RSV-Luc5) in HEp-2 cells; assay: microbe, parasite or virus in culture; type: cell-based; conditions: human respiratory syncytial virus, HEp-2, 72 h, read-out: RSV Hep2 EC50
[3] = CC50 MT4 cytotoxicity (Cell-Titer Glo); type: cell-based; conditions: human
Outline: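 Uninfected MT-4 and HEp-2 cells cultured 4-5 days at 37° C with 3-fold serially diluted compound (15 nM to 100,000 nM). Viability read by Cell-Titer Glo luminescence; untreated and 2 μM puromycin wells set 100% and 0%. CC50 from non-linear regression as concentration reducing viability by 50%.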

[4] = system: Respiratory syncytial virus recombinant with luciferase (RSV-Luc5) in Normal Human Bronchial Epithelial (NHBE) cells; assay: microbe, parasite or virus in culture; type: cell-based
Plasma stability = type: in vitro ADME; parameters: unit not given here; conditions: 37° C., 2 μM substrate
Outline: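 Reaction mixture was sampled at 0.05, 0.5, 1, 2, 3 and 4 hr into quench solution containing internal standard, then centrifuged and diluted with water. Remaining analyte was measured by LC-MS on a Q-Exactive using a formic acid/acetonitrile gradient, with 5 ppm mass tolerance.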

[5] = GI S9 stability - no PMSF; type: in vitro ADME; conditions: pH 7.4; human intestinal S9, PMSF-free; read-out: GIS9-HUMAN-NoPMSF T1/2
Outline: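 Compounds were incubated at 2 μM with PMSF-free intestinal S9 (1 mg/mL protein) in 100 mM PBS, pH 7.4, sampling at 6 time points over 120 min. Parent disappearance and formation of the nucleoside metabolite Reference Compound A were quantified by LC-MS (Q-Exactive) using analyte/internal standard peak area ratios.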

[6] = system: SARS Coronavirus 2 recombinant with NanoLuc (SARS-CoV2-NLuc) in A549-hACE2 cells; assay: organism not typed; type: cell-based
[7] = system: Caco-2 cells (clone C2BBe1); assay: CACO-2 permeability; type: in vitro ADME; parameters: unit not given here; conditions: for DM Caco2 A to B: apical to basolateral, donor pH 6.5, receiver pH 7.4; for DM Caco2 B to A: basolateral to apical
Outline: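 Caco-2 monolayers grown 21 days on collagen-coated transwells and checked for integrity by TEER. Donor buffer was HBSS/HEPES/glucose pH 6.5 with 200 μM BNPP; receiver was pH 7.4 with BSA. Compounds were dosed apically or basolaterally for A-to-B and B-to-A transport, with receiver sampling at 1 and 2 h, LC-MS/MS analysis and percent recovery.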

[8] = read-out: EC50 RSVFluc-NHBE 384 V2
[9] = A549, read-out: EC50 SARS CoV2 NanoLuc A549 384

CC(C)C(=O)OC[C@H]1O[C@@](C#N)(c2ccc3c(N)ncnn23)[C@H](OC(=O)C(C)C)[C@@H]1OC(=O)C(C)C [2nd Ester Reference Compound]
Stability at pH2, 0 hr ([1]; 0 h, 50 µg/mL, pH 2): 100.0 % AN
Stability at pH2, 3 hr ([1]; 3 h, 50 µg/mL, pH 2): 100.0 % AN
Stability at pH2, 6 hr ([1]; 6 h, 50 µg/mL, pH 2): 100.0 % AN
Stability at pH2, 9 hr ([1]; 9 h, 50 µg/mL, pH 2): 98.3 % AN
Stability at pH2, 12 hr ([1]; 12 h, 50 µg/mL, pH 2): 97.7 % AN
Stability at pH2, 24 hr ([1]; 24 h, 50 µg/mL, pH 2): 96.2 % AN

CC(C)OC(=O)OC[C@H]1O[C@@](C#N)(c2ccc3c(NC(=O)C(C)C)ncnn23)[C@H](OC(=O)C(C)C)[C@@H]1OC(=O)C(C)C [Compound 75, (2R,3R,4R,5R)-2-cyano-2-(4-isobutyramidopyrrolo[2,1-f][1,2,4]triazin-7-yl)-5-(((isopropoxycarbonyl)oxy)methyl)tetrahydrofuran-3,4-diyl bis(2-methylpropanoate)]
EC50 [2]: 1.03 µM
CC50 [3]: > 50 µM
EC50 ([4]; 72 h, read-out: RSV NHBE EC50): 0.321 µM
STA Human Plasma 37 (Plasma stability): 277.1
half-life at 2 µM [5]: 0.884 min
EC50 ([6]; 48 h, read-out: SARS-CoV2 EC50): 5.06 µM
pH 2 Stability 24 h % AN ([1]; pH2 phosphate buffer, 40° C., 24 h, Table N2): 0 % AN

N#C[C@@]1(c2ccc3c(N)ncnn23)O[C@H](COC(=O)OCc2ncccn2)[C@@H](O)[C@H]1O [Compound 91, ((2R,3S,4R,5R)-5-(4-aminopyrrolo[2,1-f][1,2,4]triazin-7-yl)-5-cyano-3,4-dihydroxytetrahydrofuran-2-yl)methyl (pyrimidin-2-ylmethyl) carbonate]
EC50 [2]: 3.64 µM
CC50 [3]: > 50 µM
EC50 ([4]; 72 h, read-out: RSV NHBE EC50): 5.84 µM
STA Human Plasma 37 (Plasma stability): 285
half-life at 2 µM [5]: 42 min
DM Caco2 A to B [7]: 0.02
DM Caco2 B to A [7]: 0.5
EC50 ([6]; 48 h, read-out: SARS-CoV2 EC50): 14.7 µM

N#C[C@@]1(c2ccc3c(N)ncnn23)O[C@H](COC(=O)OCCN2CCOCC2)[C@@H](O)[C@H]1O [Compound 92, ((2R,3S,4R,5R)-5-(4-aminopyrrolo[2,1-f][1,2,4]triazin-7-yl)-5-cyano-3,4-dihydroxytetrahydrofuran-2-yl)methyl (2-morpholinoethyl) carbonate]
EC50 [2]: 1.8 µM
CC50 [3]: > 50 µM
EC50 ([4]; 72 h, read-out: RSV NHBE EC50): 3.04 µM
STA Human Plasma 37 (Plasma stability): 139.9
half-life at 2 µM [5]: 238 min
DM Caco2 A to B [7]: 0.07
DM Caco2 B to A [7]: 0.48
EC50 ([6]; 48 h, read-out: SARS-CoV2 EC50): 5.63 µM

N#C[C@@]1(c2ccc3c(N)ncnn23)O[C@H](COC(=O)OC(CF)CF)[C@@H](O)[C@H]1O [Compound 94, ((2R,3S,4R,5R)-5-(4-aminopyrrolo[2,1-f][1,2,4]triazin-7-yl)-5-cyano-3,4-dihydroxytetrahydrofuran-2-yl)methyl (1,3-difluoropropan-2-yl) carbonate]
EC50 [2]: 1.02 µM
CC50 [3]: > 50 µM
EC50 ([4]; 72 h, read-out: RSV NHBE EC50): 0.923 µM
STA Human Plasma 37 (Plasma stability): 105.4
half-life at 2 µM [5]: 1.13 min
DM Caco2 A to B [7]: 0.13
DM Caco2 B to A [7]: 2.19
EC50 ([6]; 48 h, read-out: SARS-CoV2 EC50): 3.63 µM

CC(C)(C)OC(=O)C(C)(C)OC(=O)OC[C@H]1O[C@@](C#N)(c2ccc3c(N)ncnn23)[C@H](O)[C@@H]1O [Compound 138, tert-butyl 2-[[(2R,3S,4R,5R)-5-(4-aminopyrrolo[2,1-f][1,2,4]triazin-7-yl)-5-cyano-3,4-dihydroxy-tetrahydrofuran-2-yl]methoxycarbonyloxy]-2-methyl-propanoate]
CC50 [3]: > 50 µM
EC50 [4, 8]: > 50 µM
logD (physchem): 2
EC50 [6, 9]: 21.2 µM

C[C@@H](OC(=O)OC[C@H]1O[C@@](C#N)(c2ccc3c(N)ncnn23)[C@H](O)[C@@H]1O)[C@@H](C(=O)OCC(C)(C)C)N(C)C [Compound 147, neopentyl O-((((2R,3S,4R,5R)-5-(4-aminopyrrolo[2,1-f][1,2,4]triazin-7-yl)-5-cyano-3,4-dihydroxytetrahydrofuran-2-yl)methoxy)carbonyl)-N,N-dimethyl-L-threoninate]
CC50 [3]: > 50 µM
EC50 [4, 8]: 2.47 µM
logD (physchem): 2.5
EC50 [6, 9]: 2.85 µM

C[C@@H](OC(=O)OC[C@H]1O[C@@](C#N)(c2ccc3c(N)ncnn23)[C@H](O)[C@@H]1O)[C@@H](C(=O)OCC1CCCC1)N(C)C [Compound 148, (2S,3R)-cyclopentylmethyl 3-(((((2R,3S,4R,5R)-5-(4-aminopyrrolo[2,1-f][1,2,4]triazin-7-yl)-5-cyano-3,4-dihydroxytetrahydrofuran-2yl)methoxy)carbonyl)oxy)-2-(dimethylamino)butanoate]
CC50 [3]: > 50 µM
EC50 [4, 8]: 2.1 µM
logD (physchem): 2.7
EC50 [6, 9]: 2.05 µM

C[C@@H](OC(=O)OC[C@H]1O[C@@](C#N)(c2ccc3c(N)ncnn23)[C@H](O)[C@@H]1O)[C@@H](C(=O)OC1CCCC1)N(C)C [Compound 149, cyclopentyl O-((((2R,3S,4R,5R)-5-(4-aminopyrrolo[2,1-f][1,2,4]triazin-7-yl)-5-cyano-3,4-dihydroxytetrahydrofuran-2-yl)methoxy)carbonyl)-N,N-dimethyl-L-threoninate]
CC50 [3]: > 50 µM
EC50 [4, 8]: 2.55 µM
logD (physchem): 2.2
EC50 [6, 9]: 2.42 µM

C[C@@H](OC(=O)OC[C@H]1O[C@@](C#N)(c2ccc3c(N)ncnn23)[C@H](O)[C@@H]1O)[C@@H](C(=O)OC1CCOCC1)N(C)C [Compound 150, tetrahydro-2H-pyran-4-yl O-((((2R,3S,4R,5R)-5-(4-aminopyrrolo[2,1-f][1,2,4]triazin-7-yl)-5-cyano-3,4-dihydroxytetrahydrofuran-2-yl)methoxy)carbonyl)-N,N-dimethyl-L-threoninate]
CC50 [3]: > 50 µM
EC50 [4, 8]: 3.08 µM
logD (physchem): 1.3
EC50 [6, 9]: 2.37 µM

CC(C)OC(=O)[C@H](COC(=O)OC[C@H]1O[C@@](C#N)(c2ccc3c(N)ncnn23)[C@H](O)[C@@H]1O)N(C)C [Compound 151, isopropyl O-((((2R,3S,4R,5R)-5-(4-aminopyrrolo[2,1-f][1,2,4]triazin-7-yl)-5-cyano-3,4-dihydroxytetrahydrofuran-2-yl)methoxy)carbonyl)-N,N-dimethyl-L-serinate]
CC50 [3]: > 50 µM
EC50 [4, 8]: 2.89 µM
logD (physchem): 1.3
EC50 [6, 9]: 2.76 µM

CN(C)[C@@H](COC(=O)OC[C@H]1O[C@@](C#N)(c2ccc3c(N)ncnn23)[C@H](O)[C@@H]1O)C(=O)OCC1CCCC1 [Compound 152, cyclopentylmethyl O-((((2R,3S,4R,5R)-5-(4-aminopyrrolo[2,1-f][1,2,4]triazin-7-yl)-5-cyano-3,4-dihydroxytetrahydrofuran-2-yl)methoxy)carbonyl)-N,N-dimethyl-L-serinate]
CC50 [3]: > 50 µM
EC50 [4, 8]: 3.63 µM
logD (physchem): 2.2
EC50 [6, 9]: 1.28 µM

CN(C)[C@@H](COC(=O)OC[C@H]1O[C@@](C#N)(c2ccc3c(N)ncnn23)[C@H](O)[C@@H]1O)C(=O)OC1CCCC1 [Compound 153, cyclopentyl O-((((2R,3S,4R,5R)-5-(4-aminopyrrolo[2,1-f][1,2,4]triazin-7-yl)-5-cyano-3,4-dihydroxytetrahydrofuran-2-yl)methoxy)carbonyl)-N,N-dimethyl-L-serinate]
CC50 [3]: > 50 µM
EC50 [4, 8]: 3.24 µM
logD (physchem): 1.7
EC50 [6, 9]: 2.67 µM
